The text below walks through data of ChEMBL document CHEMBL2384993, “Multidimensional optimization of promising antitumor xanthone derivatives” (Bioorg Med Chem, 2013).

The structures appear in SMILES notation. In brackets after ≈: the same amount, converted by molar mass.

The nature of data set [1]: Micelles-buffer partition coefficient, log K of the compound after 30 mins at pH 7.4 by UV-vis spectrophotometric analysis. The data set is classed as physicochemical. The settings on record: pH 7.4, 0.5 h.
Data set [2] relates to HL-60. The data set can be described thus: Growth inhibition of human HL60 cells after 48 hrs by sulforhodamine B assay. The class given is functional. The settings on record: HL-60, 48 h.
Data set [3] can be described thus: Growth inhibition of human A375-C5 cells after 48 hrs by sulforhodamine B assay. Particulars: A375-C5, 48 h. The class given is functional.
A further data set deals with NCI-H460. The data set can be described thus: Growth inhibition of human NCI-H460 cells after 48 hrs by sulforhodamine B assay. The data set is classed as functional. Particulars: NCI-H460, 48 h. Background: Sulforhodamine B stains cellular protein and so reports cell mass.
The subject of the next data set is MCF7. The data set can be described thus: Growth inhibition of human MCF7 cells after 48 hrs by sulforhodamine B assay. The data set is classed as functional. Particulars: MCF7, 48 h.
Data set [4] in a line: Thermodynamic solubility of the compound after 24 hrs at pH 7.4 by spectrophotometric analysis. The class given is physicochemical. Particulars: buffer, read-out: Therm_solubility.
The nature of data set [5]: Liposomes-buffer partition coefficient, log K of the compound after 30 mins at pH 7.4 by UV-vis spectrophotometric analysis. Particulars: artificial membrane, pH 7.4, 0.5 h. The data set is classed as physicochemical.
The subject of data set [6] is HL-60. Put plainly: Cytotoxicity against human HL60 cells after 24 to 72 hrs by trypan blue exclusion assay. The class given is functional, cell-based.

The term GI50 denotes the concentration giving 50% growth inhibition. Low readings indicate greater sensitivity of the cells, high ones lower sensitivity of the cells. In the case of `COc1c2c(cc3c(=O)c4cc(Cl)ccc4oc13)OC(C)(C)C=C2`, the “log K” value in data set [1] is 4.34. Besides, the GI50 in the data set on HL-60 [2] is 14.1 µM; in data set [3] it was more than 150 µM; with NCI-H460 it was more than 150 µM; with MCF7 it was more than 150 µM.

Turning to `CC1(C)CCc2cc3c(=O)c4cc(Cl)ccc4oc3c(O)c2O1`, in data set [4], the solubility thermodynamic at 24 h is less than 0.1 µM. Further, the “log K” value in data set [1] came out at 4.39. Besides, the GI50 is 9 µM with HL-60 [2], more than 150 µM in data set [3], more than 150 µM with NCI-H460 and more than 150 µM in the data set with MCF7.

For the compound `COc1ccc2oc3c(O)c4c(cc3c(=O)c2c1)CCC(C)(C)O4`, the solubility thermodynamic at 24 h in data set [4] is less than 0.1 µM. In addition, the “log K” value turned out to be 3.35 in data set [1] and 3.25 in data set [5]. Further, the GI50 with HL-60 [2] was 23.9 µM; in data set [3] it was more than 150 µM; with NCI-H460, more than 150 µM; with MCF7, more than 150 µM.

`Cc1ccc2oc3c(O)c4c(cc3c(=O)c2c1)CCC(C)(C)O4`: in data set [4], the solubility thermodynamic at 24 h was less than 0.1 µM. In addition, the “log K” value is reported as 3.92 in data set [1] and 3.86 in data set [5]. Further, the GI50 in the data set with HL-60 [2] was 12.5 µM; in data set [3] it was 17.6 µM; in the data set with NCI-H460, 48.1 µM; in the data set with MCF7, more than 150 µM.

For the compound `COc1cccc2c(=O)c3cc4c(c(O)c3oc12)OC(C)(C)CC4`, in data set [4], the solubility thermodynamic at 24 h was 0.23 µM (≈ 0.0751 µg/mL). The “log K” value amounted to 3.58 in data set [1] and 3.53 in data set [5]. For the same compound, the GI50 in the data set with HL-60 [2] worked out at 27.3 µM; in data set [3], 68 µM; in the data set with NCI-H460, 41.1 µM.

For the compound `CC1(C)CCc2cc3c(=O)c4ccc(O)cc4oc3c(O)c2O1`, the solubility thermodynamic at 24 h in data set [4] amounted to 0.62 µM (≈ 0.194 µg/mL). Besides, the “log K” value in data set [1] amounted to 3.76; in data set [5], 3.32. In addition, the GI50 was 57 µM in the data set with HL-60 [2], 40.7 µM in data set [3], 59.1 µM with NCI-H460 and 82.5 µM in the data set with MCF7.

Take `COc1c2c(cc3c(=O)c4cc(C)ccc4oc13)CCC(C)(C)O2`: the “log K” value worked out at 4.01 in data set [1] and 4.02 in data set [5]. Besides, the GI50 in the data set on HL-60 [2] was 5.14 µM; in data set [3] it was 29.7 µM; in the data set with NCI-H460 it was 30.9 µM; in the data set with MCF7, 31.8 µM.

In the case of `COc1c2c(cc3c(=O)c4ccc(O)cc4oc13)CCC(C)(C)O2`, the “log K” value in data set [1] worked out at 3.49; in data set [5], 3.43. Besides, the GI50 was 8.3 µM in the data set on HL-60 [2], more than 150 µM in data set [3], more than 150 µM in the data set on NCI-H460 and more than 150 µM in the data set with MCF7.

`COc1cc2oc3c(OC)c4c(cc3c(=O)c2cc1OC)CCC(C)(C)O4`: the “log K” value in data set [1] was 3.88. Moreover, the GI50 in the data set on HL-60 [2] is 72.3 µM; in data set [3] it was more than 100 µM; in the data set on NCI-H460 it was more than 100 µM; in the data set on MCF7, more than 100 µM.

`COc1ccc2oc3c(OC)c4c(cc3c(=O)c2c1)OC(C)(C)C=C4`: the “log K” value in data set [1] is listed as 4.21. The GI50 (in data set [3]; in the data set on NCI-H460; in the data set on MCF7) was more than 150 µM in each case.

`COc1c2c(cc3c(=O)c4cc(C)ccc4oc13)OC(C)(C)C=C2`: the “log K” value in data set [1] was found to be 4.29; in data set [5], 4.32. Also, the GI50 (in the data set with HL-60 [2]; in data set [3]; with NCI-H460; with MCF7) was more than 50 µM throughout.

Consider `COc1c2c(cc3c(=O)c4ccc(O)cc4oc13)OC(C)(C)C=C2`, for which, in data set [1], the “log K” value was found to be 3.9. Also, the GI50 with HL-60 [2] was 18.8 µM; in data set [3] it was 27.1 µM; in the data set on NCI-H460, 34.9 µM; in the data set with MCF7, 36.9 µM.

On to `CCN(CC)c1ccc2c(=O)c3cc4c(c(OC)c3oc2c1)C=CC(C)(C)O4`, for which the GI50 was 9.2 µM in the data set with HL-60 [2], 21.9 µM in data set [3], 26.8 µM in the data set on NCI-H460 and 34.3 µM in the data set on MCF7.

`COc1c2c(cc3c(=O)c4cc(Cl)ccc4oc13)OC(C)(C)CC2`: the “log K” value in data set [1] is recorded as 4.41; in data set [5] it was 4.48. Moreover, the GI50 with HL-60 [2] is 48.4 µM; in data set [3] it was more than 75 µM; with NCI-H460, more than 75 µM; in the data set on MCF7 it was more than 75 µM.

Take `COc1cc2oc3c(OC)c4c(cc3c(=O)c2cc1OC)OC(C)(C)CC4`: the “log K” value was found to be 3.83 in data set [1] and 3.88 in data set [5]. For the same compound, the GI50 (in data set [3]; in the data set with NCI-H460; in the data set on MCF7) was more than 75 µM throughout.

For `CCN(CC)c1ccc2c(=O)c3cc4c(c(OC)c3oc2c1)CCC(C)(C)O4`, the “log K” value was 4.7 in data set [1] and 4.62 in data set [5]. In addition, the GI50 with HL-60 [2] was found to be 14.4 µM; in data set [3], 19.6 µM; in the data set with NCI-H460, 13.7 µM; in the data set with MCF7, 14.5 µM.

As to `COc1c2c(cc3c(=O)c4ccccc4oc13)CCC(C)(C)O2`, the “log K” value worked out at 3.59 in data set [1] and 3.6 in data set [5]. The GI50 in the data set with HL-60 [2] was 8.8 µM; in data set [3], more than 150 µM; in the data set with NCI-H460 it was more than 150 µM; in the data set with MCF7, more than 150 µM.

A word on the IC50: it is the concentration that gives 50% inhibition. For the compound `CC1(C)CCc2cc3c(=O)c4ccccc4oc3c(O)c2O1` [DIHYDRO-12-HYDROXY-2,2-DIMETHYL-2H,6H-PYRANO[3,2-B]XANTHEN-6-ONE], the solubility thermodynamic at 24 h in data set [4] was 0.4 µM (≈ 0.119 µg/mL). The figures for the “log K” value in data set [1] and in data set [5] were 3.28 and 3.35, respectively. In addition, the IC50 in the data set with HL-60 [6] stood at 6 µM. Also, the GI50 in the data set with HL-60 [2] was determined as 23.4 µM; in data set [3], 28.9 µM; in the data set with NCI-H460, 40.3 µM; with MCF7 it was 39.7 µM.

In the case of `COc1cccc2c1C(=O)c1c(O)c3c(c(O)c1C2=O)C[C@@](O)(C(=O)CO)C[C@@H]3O[C@H]1C[C@H](N)[C@H](O)[C@H](C)O1` [DOXORUBICIN], the GI50 in the data set on HL-60 [2] was 0.028 µM; in data set [3], 0.145 µM; in the data set with NCI-H460, 0.0641 µM; with MCF7, 0.0654 µM.
